Reference: ChEMBL document CHEMBL1158749, “Cytotoxic cembranoid diterpenes from a soft coral Sinularia gibberosa” (J Nat Prod, 2005)
≈ marks a conversion by molar mass, not a printed value.

Tests used:
Assay type in all cases: functional, cell-based
MDA-MB-435 = assay: Cytotoxicity against human MDA-MB-435 cells by SRB assay
HL-60 = assay: Cytotoxicity against human HL60 cells by MTT assay
BGC-823 = assay: Cytotoxicity against human BGC823 cells by SRB assay

Compound	IC50 (MDA-MB-435) [µg/mL]	IC50 (HL-60) [µg/mL]	IC50 (BGC-823) [µg/mL]
C=C1C(=O)O[C@H]2C/C(C)=C/CC/C(C)=C/CC[C@@]3(CO)O[C@@H]3C[C@H]12 [SINULAROLIDE D]	> 10	2.3 (≈ 6.92 µM)	6.1 (≈ 18.3 µM)
C=C1C(=O)O[C@@H]2[C@@H]1C[C@H](O)[C@@](O)(CO)CC/C=C(\C)CC/C=C(\C)[C@@H]2O [SINULAROLIDE A]	> 10	> 10	> 10
C=C1C(=O)O[C@@H]2[C@@H]1C[C@@H]1O[C@]1(C)CC/C=C(\C)CC/C=C(\C)[C@@H]2O [SINULAROLIDE E]	2.1 (≈ 6.32 µM)	6 (≈ 18 µM)	8.6 (≈ 25.9 µM)
C=C1C(=O)O[C@@H]2[C@@H]1C[C@H]1O[C@]1(CO)CC/C=C(\C)CC/C=C(\C)[C@H]2O [SINULAROLIDE B]	8 (≈ 23 µM)	5.2 (≈ 14.9 µM)	6.3 (≈ 18.1 µM)
C=C1C(=O)O[C@@H]2[C@@H]1C[C@H]1O[C@]1(CO)CC/C=C(\C)CC/C=C(\C)[C@@H]2O [SINULAROLIDE C]	7.7 (≈ 22.1 µM)	5.1 (≈ 14.6 µM)	5.2 (≈ 14.9 µM)
